Results: US20040241114A1, “Hair Care and Nail Care Compositions Based on Ion-Pair Delivery System for Gender and Ethnic Selective Applications” (priority 2003, published 2004)

Legend:
Type in all cases: physicochemical
pH of 1% water solution = assay: pH of 1% water solution
[1] = Stability of water solution
Solubility in water = assay: Solubility in water
Excerpt: The ion-pair compositions thus formed are not just physical mixtures of the two compositions that are combined in an ion-pair mode to form such ion-pair compositions. Such ion-pair compositions are discreet chemical entities. For example, the combination of niacinamide with N-Acetyl-Cysteine results in the formation of ion-pair complex, Niacinamide N-Acetyl Cysteinate. […] Niacinamide N-Acetyl-Cysteinate, the ion-pair that is produced from the combination of the above two compositions is a new ingredient properties of which are very different from that of the above two compositions, which shall be described elsewhere.

pH of 1% water solution (pH of 1% water solution)	stability of water solution [1]	solubility in water (Solubility in water)	SMILES
3.5	poor	> 20%	CC(=O)N[C@@H](CS)C(=O)O [N-Acetyl-Cysteine]
6.3	good	50%	NC(=O)c1cccnc1 [niacinamide]
